# From patent US7138361B2, “Herbicidal heterocycles” (E. I. du Pont de Nemours and Company, priority 2000, dated 2006)
# Assays:
# Type in all cases: in vivo
# rice (Oryza saliva) = test: Test B preemergence
# Method in brief: (§1)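 Seeds were planted and sprayed preemergence with test chemical in a non-phytotoxic solvent mixture containing surfactant; postemergence plants (2 to 18 cm, 1- to 4-leaf stage) received the same formulation. Greenhouse hold 13 to 15 days, then visual rating versus untreated controls on a 0–100 scale (0 no effect, 100 complete control).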
# [1] = system: morning glory (Ipomoea hederacea); test: Test B preemergence
# Method in brief: as §1
# corn (Zea mays) = test: Test B preemergence
# Method in brief: as §1
# [2] = system: Surinam grass (Brachiaria decumbens); test: Test B preemergence
# Method in brief: as §1
# [3] = system: lambsquarters (Chenopodium album); test: Test B preemergence
# Method in brief: as §1
# [4] = system: velvetleaf (Abutilon theophrasti); test: Test B preemergence
# Method in brief: as §1
# [5] = system: crabgrass (Digitaria sanguinalis); test: Test B preemergence
# Method in brief: as §1
# [6] = system: giant foxtail (Setaria faberii); test: Test B preemergence
# Method in brief: as §1
# [7] = system: barnyardgrass (Echinochloa crus-galli); test: Test B preemergence
# Method in brief: as §1
# [8] = system: pigweed (Amaranthus retroflexus); test: Test B preemergence
# Method in brief: as §1
# [9] = system: cocklebur (Xanthium strumarium); test: Test B preemergence
# Method in brief: as §1
# soybean (Glycine max) = test: Test C preemergence; conditions: for Plant response rating (0 to 100), Soybean: visual evaluation after 12 to 14 days
# Method in brief: (§2)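 Herbicidal effect is a visual 0–100 score (100 = complete control) assigned versus untreated plants, 12 to 14 days after spraying in the greenhouse. Test compounds were applied in a non-phytotoxic, surfactant-containing solvent.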
# [10] = system: Surinam grass (Brachiaria decumbens); test: Test C preemergence; conditions: for Plant response rating (0 to 100), Surinam grass: visual evaluation after 12 to 14 days
# Method in brief: as §2
# [11] = system: lambsquarters (Chenopodium album); test: Test C preemergence; conditions: for Plant response rating (0 to 100), Lambsquarters: visual evaluation after 12 to 14 days
# Method in brief: as §2
# [12] = system: crabgrass (Digitaria sanguinalis); test: Test C preemergence; conditions: for Plant response rating (0 to 100), Crabgrass: visual evaluation after 12 to 14 days
# Method in brief: as §2
# [13] = system: goosegrass (Eleusine indica); test: Test C preemergence; conditions: for Plant response rating (0 to 100), Goosegrass: visual evaluation after 12 to 14 days
# Method in brief: as §2
# [14] = system: woolly cupgrass (Eriochloa villosa); test: Test C preemergence; conditions: for Plant response rating (0 to 100), Cupgrass, Woolly: visual evaluation after 12 to 14 days
# Method in brief: as §2
# Nightshade = test: Test C preemergence
# [15] = system: common ragweed (Ambrosia elatior); test: Test C preemergence; conditions: for Plant response rating (0 to 100), Ragweed, Common: visual evaluation after 12 to 14 days
# Method in brief: as §2
# [16] = system: pigweed (Amaranthus retroflexus); test: Test C preemergence; conditions: for Plant response rating (0 to 100), Pigweed: visual evaluation after 12 to 14 days
# Method in brief: as §2
# [17] = system: cocklebur (Xanthium strumarium); test: Test C preemergence; conditions: for Plant response rating (0 to 100), Cocklebur: visual evaluation after 12 to 14 days
# Method in brief: as §2
# [18] = Preemergence, Rate 500 g/ha, scale 0 to 100, 0 no effect, 100 complete control
# [19] = preemergence, Rate 125 g/ha, scale of 0 to 100 where 0 is no effect and 100 is complete control, 13 to 15 days
# [20] = preemergence, Rate 125 g/ha, scale 0 to 100, 0 no effect, 100 complete control
# [21] = preemergence, Rate 250 g/ha, scale 0 to 100, 0 no effect, 100 complete control
# [22] = Rate 62 g/ha, scale 0 to 100, 0 no effect, 100 complete control
# [23] = Rate 125 g/ha, scale 0 to 100, 0 no effect, 100 complete control
# [24] = Preemergence, Rate 500 g/ha, scale 0 to 100
smiles,measurement,setting,value
CCC(C)c1ccn(C2OCN(c3cccc(OC(F)(F)F)c3)C2=O)n1 (stereo not shown) [Compound 67],"Plant response rating, Rice",rice (Oryza saliva); [18],40
same,"Plant response rating, Rice",rice (Oryza saliva); [19],40
same,"Plant response rating, Morningglory",[1]; [18],0
same,"Plant response rating, Morningglory",[1]; [19],0
same,"Plant response rating, Corn",corn (Zea mays); [18],20
same,"Plant response rating, Corn",corn (Zea mays); [19],0
same,"Plant response rating, Surinam grass",[2]; [18],50
same,"Plant response rating, Surinam grass",[2]; [19],20
same,"Plant response rating, Lambsquarters",[3]; [18],100
same,"Plant response rating, Lambsquarters",[3]; [19],100
same,"Plant response rating, Velvetleaf",[4]; [18],0
same,"Plant response rating, Velvetleaf",[4]; [19],0
same,"Plant response rating, Crabgrass",[5]; [18],80
same,"Plant response rating, Crabgrass",[5]; [19],20
same,"Plant response rating, Foxtail, Giant",[6]; [18],40
same,"Plant response rating, Foxtail, Giant",[6]; [19],40
same,"Plant response rating, Barnyardgrass",[7]; [18],100
same,"Plant response rating, Barnyardgrass",[7]; [19],60
same,"Plant response rating, Pigweed",[8]; [18],100
same,"Plant response rating, Pigweed",[8]; [19],100
same,"Plant response rating, Cocklebur",[9]; [18],0
same,"Plant response rating, Cocklebur",[9]; [19],0
same,"Plant response rating (0 to 100), Soybean","soybean (Glycine max); preemergence, Rate 500 g/ha",0
same,"Plant response rating, Soybean",soybean (Glycine max); [20],0
same,"Plant response rating, Soybean",soybean (Glycine max); [21],0
same,"Plant response rating, Surinam grass",[10]; [22],0
same,"Plant response rating (0 to 100), Surinam grass","[10]; preemergence, Rate 250 g/ha",100
same,"Plant response rating (0 to 100), Surinam grass","[10]; preemergence, Rate 500 g/ha",100
same,"Plant response rating, Surinam grass",[10]; [20],0
same,"Plant response rating, Lambsquarters",[11]; [22],100
same,"Plant response rating (0 to 100), Lambsquarters","[11]; preemergence, Rate 500 g/ha",100
same,"Plant response rating, Lambsquarters",[11]; [20],100
same,"Plant response rating, Lambsquarters",[11]; [21],100
same,"Plant response rating, Crabgrass",[12]; [22],100
same,"Plant response rating (0 to 100), Crabgrass","[12]; preemergence, Rate 250 g/ha",100
same,"Plant response rating (0 to 100), Crabgrass","[12]; preemergence, Rate 500 g/ha",100
same,"Plant response rating, Crabgrass",[12]; [20],100
same,"Plant response rating, Goosegrass",[13]; [22],100
same,"Plant response rating (0 to 100), Goosegrass","[13]; preemergence, Rate 250 g/ha",100
same,"Plant response rating (0 to 100), Goosegrass","[13]; preemergence, Rate 500 g/ha",100
same,"Plant response rating, Goosegrass",[13]; [20],100
same,"Plant response rating, Cupgrass, Woolly",[14]; [22],90
same,"Plant response rating (0 to 100), Cupgrass, Woolly","[14]; preemergence, Rate 250 g/ha",100
same,"Plant response rating (0 to 100), Cupgrass, Woolly","[14]; preemergence, Rate 500 g/ha",100
same,"Plant response rating, Cupgrass, Woolly",[14]; [20],70
same,"Plant response rating, Nightshade",Nightshade; [22],0
same,"Plant response rating, Nightshade",Nightshade; [23],70
same,"Plant response rating, Nightshade","Nightshade; Rate 250 g/ha, scale 0 to 100, 0 no effect, 100 complete control",80
same,"Plant response rating (0 to 100), Ragweed, Common","[15]; preemergence, Rate 500 g/ha",70
same,"Plant response rating, Ragweed, Common",[15]; [20],20
same,"Plant response rating, Ragweed, Common",[15]; [21],70
same,"Plant response rating (0 to 100), Pigweed","[16]; preemergence, Rate 500 g/ha",80
same,"Plant response rating, Pigweed",[16]; [20],90
same,"Plant response rating, Pigweed",[16]; [21],80
same,"Plant response rating, Cocklebur",[17]; [22],0
same,"Plant response rating (0 to 100), Cocklebur","[17]; preemergence, Rate 250 g/ha",20
same,"Plant response rating (0 to 100), Cocklebur","[17]; preemergence, Rate 500 g/ha",50
same,"Plant response rating, Cocklebur",[17]; [20],0
CC(C)(C)c1ccn(C2CCN(c3ccc(Cl)c(Br)c3)C2=O)n1 (stereo not shown) [Compound 56],"Plant response rating, Rice",rice (Oryza saliva); [18],0
same,"Plant response rating, Rice",rice (Oryza saliva); [19],0
same,"Plant response rating, Morningglory",[1]; [18],0
same,"Plant response rating, Morningglory",[1]; [19],0
same,"Plant response rating, Corn",corn (Zea mays); [18],0
same,"Plant response rating, Corn",corn (Zea mays); [19],0
same,"Plant response rating, Surinam grass",[2]; [18],30
same,"Plant response rating, Surinam grass",[2]; [19],30
same,"Plant response rating, Lambsquarters",[3]; [18],100
same,"Plant response rating, Lambsquarters",[3]; [19],100
same,"Plant response rating, Velvetleaf",[4]; [18],0
same,"Plant response rating, Velvetleaf",[4]; [19],0
same,"Plant response rating, Crabgrass",[5]; [18],100
same,"Plant response rating, Crabgrass",[5]; [19],30
same,"Plant response rating, Foxtail, Giant",[6]; [18],90
same,"Plant response rating, Foxtail, Giant",[6]; [19],50
same,"Plant response rating, Barnyardgrass",[7]; [18],50
same,"Plant response rating, Barnyardgrass",[7]; [19],0
same,"Plant response rating, Pigweed",[8]; [18],100
same,"Plant response rating, Pigweed",[8]; [19],100
same,"Plant response rating, Cocklebur",[9]; [19],0
same,"Plant response rating, Soybean",soybean (Glycine max); [24],0
same,"Plant response rating (0 to 100), Soybean","soybean (Glycine max); preemergence, Rate 250 g/ha",0
same,"Plant response rating, Soybean",soybean (Glycine max); [20],0
same,"Plant response rating, Surinam grass",[10]; [24],0
same,"Plant response rating, Surinam grass",[10]; [22],0
same,"Plant response rating (0 to 100), Surinam grass","[10]; preemergence, Rate 250 g/ha",0
same,"Plant response rating, Surinam grass",[10]; [20],0
same,"Plant response rating, Lambsquarters",[11]; [24],100
same,"Plant response rating, Lambsquarters",[11]; [22],100
same,"Plant response rating (0 to 100), Lambsquarters","[11]; preemergence, Rate 250 g/ha",100
same,"Plant response rating, Lambsquarters",[11]; [20],100
same,"Plant response rating, Crabgrass",[12]; [24],100
same,"Plant response rating, Crabgrass",[12]; [22],30
same,"Plant response rating (0 to 100), Crabgrass","[12]; preemergence, Rate 250 g/ha",90
same,"Plant response rating, Crabgrass",[12]; [20],30
same,"Plant response rating, Goosegrass",[13]; [24],100
same,"Plant response rating, Goosegrass",[13]; [22],60
same,"Plant response rating (0 to 100), Goosegrass","[13]; preemergence, Rate 250 g/ha",90
same,"Plant response rating, Goosegrass",[13]; [20],80
same,"Plant response rating, Cupgrass, Woolly",[14]; [24],70
same,"Plant response rating, Cupgrass, Woolly",[14]; [22],0
same,"Plant response rating (0 to 100), Cupgrass, Woolly","[14]; preemergence, Rate 250 g/ha",0
same,"Plant response rating, Cupgrass, Woolly",[14]; [20],0
same,"Plant response rating, Nightshade",Nightshade; [22],0
same,"Plant response rating, Nightshade",Nightshade; [23],0
same,"Plant response rating, Nightshade","Nightshade; Rate 500 g/ha, scale 0 to 100",20
same,"Plant response rating, Ragweed, Common",[15]; [24],20
same,"Plant response rating (0 to 100), Ragweed, Common","[15]; preemergence, Rate 250 g/ha",0
same,"Plant response rating, Ragweed, Common",[15]; [20],0
same,"Plant response rating, Pigweed",[16]; [24],100
same,"Plant response rating (0 to 100), Pigweed","[16]; preemergence, Rate 250 g/ha",0
same,"Plant response rating, Pigweed",[16]; [20],90
same,"Plant response rating, Cocklebur",[17]; [24],100
same,"Plant response rating, Cocklebur",[17]; [22],0
same,"Plant response rating (0 to 100), Cocklebur","[17]; preemergence, Rate 250 g/ha",0
same,"Plant response rating, Cocklebur",[17]; [20],0
